Results reported in patent US8841233B2, “Herbicidal compositions comprising 4-amino-3-chloro-5-fluoro-6-(4-chloro-2-fluoro-3-methoxyphenyl) pyridine-2-carboxylic acid or a derivative thereof and 4-hydroxyphenyl-pyruvate dioxygenase (HPPD) inhibitors” (Dow Agrosciences LLC, priority 2012, dated 2014).
Values joined by “and” are separate entries in the source; they are usually repeats but may differ in a detail not shown here. Equal values may be shown once.

System: CYPRO
Test: In-water applied weed control, transplanted paddy rice, greenhouse (Example II)
Type: in vivo, Cyperus rotundus L.
Description: Evaluation of in-Water Applied Herbicidal Mixtures for Weed Control in Transplanted Paddy Rice
Weed seeds or nutlets of the desired test plant species were planted in puddled soil (mud) prepared by mixing a shredded, non-sterilized mineral soil (50.5 percent silt, 25.5 percent clay, and 24 percent sand, with a pH of about 7.6 and an organic matter content of about 2.9 percent) and water at a 1:1 volumetric ratio. The prepared mud was dispensed in 365 mL aliquots into 16-ounce (oz.) non-perforated plastic pots with a surface area of 86.59 square centimeters (cm^2) leaving a headspace of 3 centimeters (cm) in each pot. Mud was allowed to dry overnight prior to planting or transplanting. Rice seeds were planted in Sun Gro MetroMix® 306 planting mixture, which typically has a pH of 6.0 to 6.8 and an organic matter content of about 30 percent, in plastic plug trays. Seedlings at the second or third leaf stage of growth were transplanted into 840 mL of mud contained in 32-oz. non-perforated plastic pots with a surface area of 86.59 cm^2 4 days prior to herbicide application. The paddy was created by filling the headspace of the pots with 2.5 to 3 cm of water. When required to ensure good germination and healthy plants, a fungicide treatment and/or other chemical or physical treatment was applied. The plants were grown for 4-22 days in a greenhouse with an approximate 14 h photoperiod which was maintained at about 29′C during the day and 26° C. during the night. Nutrients were added as Osmocote® (19:6:12, N:P:K+ minor nutrients) at 2 g per 16-oz. pot and 4 g per 32-oz. pot. Water was added on a regular basis to maintain the paddy flood, and supplemental lighting was provided with overhead metal halide 1000-Watt lamps as necessary. The plants were employed for testing when they reached the first through fourth true leaf stage.
Treatments consisted of the acid or esters of 4-amino-3-chloro-5-fluoro-6-(4-chloro-2-fluoro-3-methoxy-phenyl)pyridine-2-carboxylic acid (compound A) each formulated as an SC (suspension concentrate) and various herbicidal components alone and in combination. Forms of compound A were applied on an acid equivalent basis.
Other herbicidal components were applied on an active ingredient basis and included 4-hydroxyphenyl pyruvate dioxygenase (HPPD)-inhibiting herbicides mesotrione formulated as Callisto®, sulcotrione formulated as Mikado®, pyrazolynate formulated as Sunbird® 10% GR, and benzobicyclon formulated as Benzobicyclon 3.5% or technical material.
Treatment requirements for each compound or herbicidal component were calculated based upon the rates being tested, the concentration of active ingredient or acid equivalent in the formulation, an application volume of 2 mL per component per pot, and an application area of 86.59 cm^2 per pot.
For formulated compounds, a measured amount was placed in an individual 100 or 200 mL glass vial and was dissolved in a volume of 1.25% (v/v) Agri-Dex® crop oil concentrate to obtain application solutions.
For technical grade compounds, a weighed amount was placed in an individual 100 to 200 mL glass vial and was dissolved in a volume of acetone to obtain concentrated stock solutions. […] The concentrated stock solutions obtained were diluted with an equivalent volume of an aqueous mixture containing 2.5% (v/v) crop oil concentrate so that the final application solutions contained 1.25% (v/v) crop oil concentrate.
Applications were made by injecting with a pipetter appropriate amounts of the application solutions, individually and sequentially, into the aqueous layer of the paddy. Control plants were treated in the same manner with the solvent blank. Applications were made so that all treated plant material received the same concentrations of acetone and crop oil concentrate.
The treated plants and control plants were placed in a greenhouse as described above and water was added as needed to maintain a paddy flood. […]

Row | Structure (SMILES) | Visual Weed Control (%) - 21 DAA CYPRO Obs (17.5 gae/ha) | Visual Weed Control (%) - 22 DAA CYPRO Obs (10.6 gae/ha) | Visual Weed Control (%) - 22 DAA CYPRO Obs (21.2 gae/ha) | Visual Weed Control (%) - 22 DAA CYPRO Obs (42.4 gae/ha)
1 | COc1c(Cl)ccc(-c2nc(C(=O)OCc3ccccc3)c(Cl)c(N)c2F)c1F [Compound A Benzyl Ester, benzyl ester of 4-amino-3-chloro-5-fluoro-6-(4-chloro-2-fluoro-3-methoxy-phenyl)pyridine-2-carboxylic acid] | 10% | – | – | –
2 | COc1c(Cl)ccc(-c2nc(C(=O)O)c(Cl)c(N)c2F)c1F [Compound A Acid, 4-amino-3-chloro-6-(4-chloro-2-fluoro-3-methoxyphenyl)-5-fluoropyridine-2-carboxylic acid] | – | 0% | 40% and 60% | 90%
